Molecules are shown by their SMILES.

Tested on in one experiment: not listed separately
Nature of the experiment: DRUGMATRIX: beta-Lactamase enzyme inhibition (substrate: Nitrocefin). Further details: species or system Bacillus cereus. The following applies: Not Active = under 50% inhibition at 10 µM.
Take `Cc1oncc1C(=O)Nc1ccc(C(F)(F)F)cc1` [LEFLUNOMIDE]: the IC50 result was “Not Active” and the Ki result was “Not Active”.
As for `CC[C@@H](CO)NC(=O)[C@@H]1C=C2c3cccc4[nH]cc(c34)C[C@H]2N(C)C1` [METHYLERGONOVINE], the IC50 entry is recorded as “Not Active” and the Ki result is recorded as “Not Active”.
Turning to `CCOC(=O)N1CCC(=C2c3ccc(Cl)cc3CCc3cccnc32)CC1` [LORATADINE], the IC50 entry is “Not Active” and the Ki result is recorded as “Not Active”.
Regarding `CC(C)(C)NC(=O)[C@@H]1C[C@@H]2CCCC[C@@H]2CN1C[C@@H](O)[C@H](Cc1ccccc1)NC(=O)[C@H](CC(N)=O)NC(=O)c1ccc2ccccc2n1`, the 50% inhibitory concentration (IC50) result was “Not Active” and the Ki entry was “Not Active”.

Another experiment addresses T1, Progesterone receptor (Bos taurus, UniProt Q690N0).
T1 sequence (Q690N0 whole entry): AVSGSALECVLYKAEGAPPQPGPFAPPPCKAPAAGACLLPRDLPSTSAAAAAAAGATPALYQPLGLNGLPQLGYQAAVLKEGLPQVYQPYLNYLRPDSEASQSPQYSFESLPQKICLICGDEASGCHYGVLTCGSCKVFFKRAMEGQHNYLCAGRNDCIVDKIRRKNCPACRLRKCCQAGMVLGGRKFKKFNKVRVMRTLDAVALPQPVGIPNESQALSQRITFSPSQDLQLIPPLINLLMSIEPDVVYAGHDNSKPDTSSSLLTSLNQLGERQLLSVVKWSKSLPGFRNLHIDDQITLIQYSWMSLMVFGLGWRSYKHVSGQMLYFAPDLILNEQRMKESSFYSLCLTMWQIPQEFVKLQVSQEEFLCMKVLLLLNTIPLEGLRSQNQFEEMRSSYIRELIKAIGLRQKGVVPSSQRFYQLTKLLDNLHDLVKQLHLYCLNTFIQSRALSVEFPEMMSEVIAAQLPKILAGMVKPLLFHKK
In words: DRUGMATRIX: Progesterone radioligand binding (ligand: [3H] R-5020). The conditions noted are these: Not Active = under 50% inhibition at 10 µM. Type of experiment: tissue-based, Uterus.
Turning to `Cc1oncc1C(=O)Nc1ccc(C(F)(F)F)cc1` [LEFLUNOMIDE], the IC50 entry is on record as “Not Active”.
Still for that read-out and setting: then `CC[C@@H](CO)NC(=O)[C@@H]1C=C2c3cccc4[nH]cc(c34)C[C@H]2N(C)C1` [METHYLERGONOVINE], with “Not Active”; and `CCOC(=O)N1CCC(=C2c3ccc(Cl)cc3CCc3cccnc32)CC1` [LORATADINE], with “Not Active”.
Regarding `CC(C)(C)NC(=O)[C@@H]1C[C@@H]2CCCC[C@@H]2CN1C[C@@H](O)[C@H](Cc1ccccc1)NC(=O)[C@H](CC(N)=O)NC(=O)c1ccc2ccccc2n1`, the IC50 result is on record as “Not Active”.

For a further experiment, the target named is Beta-3 adrenergic receptor (Homo sapiens, UniProt P13945). In words: DRUGMATRIX: Adrenergic beta3 radioligand binding (ligand: [125I] Cyanopindolol). In kind it is cell membranes, HEK293, Membrane. The conditions noted are these: hek293; Not Active = under 50% inhibition at 10 µM.
Chain of Beta-3 adrenergic receptor (P13945 whole entry): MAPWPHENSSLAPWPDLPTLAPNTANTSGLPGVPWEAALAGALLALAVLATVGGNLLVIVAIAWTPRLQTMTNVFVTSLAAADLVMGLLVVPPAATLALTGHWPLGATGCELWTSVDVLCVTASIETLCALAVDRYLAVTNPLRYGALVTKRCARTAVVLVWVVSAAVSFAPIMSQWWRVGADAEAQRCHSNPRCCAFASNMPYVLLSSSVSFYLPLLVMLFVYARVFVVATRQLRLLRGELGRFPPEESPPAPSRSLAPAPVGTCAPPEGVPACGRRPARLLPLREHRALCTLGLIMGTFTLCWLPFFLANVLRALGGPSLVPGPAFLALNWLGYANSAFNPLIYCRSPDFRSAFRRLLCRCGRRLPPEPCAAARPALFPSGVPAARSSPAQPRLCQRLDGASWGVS
As for `Cc1oncc1C(=O)Nc1ccc(C(F)(F)F)cc1` [LEFLUNOMIDE], the IC50 entry is recorded as “Not Active”.
With `CC[C@@H](CO)NC(=O)[C@@H]1C=C2c3cccc4[nH]cc(c34)C[C@H]2N(C)C1` [METHYLERGONOVINE], the IC50 result is “Not Active”.
Still for that read-out and setting: next, `CCOC(=O)N1CCC(=C2c3ccc(Cl)cc3CCc3cccnc32)CC1` [LORATADINE]: “Not Active”; `CC(C)(C)NC(=O)[C@@H]1C[C@@H]2CCCC[C@@H]2CN1C[C@@H](O)[C@H](Cc1ccccc1)NC(=O)[C@H](CC(N)=O)NC(=O)c1ccc2ccccc2n1`: “Not Active”.

Tested on in another experiment: not listed separately
In words: DRUGMATRIX: Imidazoline I2, Central radioligand binding (ligand: [3H] Idazoxan). Type of experiment: cell membranes, Rattus norvegicus, Wistar, Cerebral cortex, Membrane. The conditions noted are these: Not Active = under 50% inhibition at 10 µM.
With `Cc1oncc1C(=O)Nc1ccc(C(F)(F)F)cc1` [LEFLUNOMIDE], the IC50 entry is given as “Not Active” and the Ki entry is recorded as “Not Active”.
For `CCOC(=O)N1CCC(=C2c3ccc(Cl)cc3CCc3cccnc32)CC1` [LORATADINE], the IC50 entry was “Not Active” and the Ki result is listed as “Not Active”.
As for `CC(C)(C)NC(=O)[C@@H]1C[C@@H]2CCCC[C@@H]2CN1C[C@@H](O)[C@H](Cc1ccccc1)NC(=O)[C@H](CC(N)=O)NC(=O)c1ccc2ccccc2n1`, the IC50 result is on record as “Not Active” and the Ki entry is reported as “Not Active”.

Staying with this experiment, now noted: Not Active = under 50% inhibition at 10 µM; read-out: IC50.
Turning to `CC[C@@H](CO)NC(=O)[C@@H]1C=C2c3cccc4[nH]cc(c34)C[C@H]2N(C)C1` [METHYLERGONOVINE], the IC50 turned out to be 2930 nM.

The same experiment, now with this note: Not Active = under 50% inhibition at 10 µM; read-out: Ki.
With `CC[C@@H](CO)NC(=O)[C@@H]1C=C2c3cccc4[nH]cc(c34)C[C@H]2N(C)C1` [METHYLERGONOVINE], the Ki turned out to be 1960 nM.

Tested on in a further experiment: not listed separately
Nature of the experiment: DRUGMATRIX: Interleukin IL-1 radioligand binding (ligand: [125I] interleukin 1beta). The conditions noted are these: nih3t3; Not Active = under 50% inhibition at 10 µM. Type of experiment: cell membranes, Membrane.
For `Cc1oncc1C(=O)Nc1ccc(C(F)(F)F)cc1` [LEFLUNOMIDE], the IC50 result is on record as “Not Active” and the Ki result is “Not Active”.
Turning to `CC[C@@H](CO)NC(=O)[C@@H]1C=C2c3cccc4[nH]cc(c34)C[C@H]2N(C)C1` [METHYLERGONOVINE], the IC50 result was “Not Active” and the inhibition constant (Ki) result is reported as “Not Active”.
With `CCOC(=O)N1CCC(=C2c3ccc(Cl)cc3CCc3cccnc32)CC1` [LORATADINE], the IC50 entry was “Not Active” and the Ki result is listed as “Not Active”.
Consider `CC(C)(C)NC(=O)[C@@H]1C[C@@H]2CCCC[C@@H]2CN1C[C@@H](O)[C@H](Cc1ccccc1)NC(=O)[C@H](CC(N)=O)NC(=O)c1ccc2ccccc2n1`, for which the IC50 entry is on record as “Not Active” and the Ki entry was “Not Active”.

Tested on in the next experiment: not listed separately
In words: DRUGMATRIX: Purinergic P2X radioligand binding (ligand: [3H] alpha, beta-Methylene-ATP). Type of experiment: cell membranes, Oryctolagus cuniculus, New Zealand albino, Urinary bladder, Membrane. The following applies: Not Active = under 50% inhibition at 10 µM.
Consider `Cc1oncc1C(=O)Nc1ccc(C(F)(F)F)cc1` [LEFLUNOMIDE], for which the IC50 result was “Not Active” and the Ki entry is recorded as “Not Active”.
Turning to `CC[C@@H](CO)NC(=O)[C@@H]1C=C2c3cccc4[nH]cc(c34)C[C@H]2N(C)C1` [METHYLERGONOVINE], the IC50 entry is listed as “Not Active” and the Ki result is “Not Active”.
As for `CCOC(=O)N1CCC(=C2c3ccc(Cl)cc3CCc3cccnc32)CC1` [LORATADINE], the IC50 result was “Not Active” and the Ki entry is “Not Active”.
In the case of `CC(C)(C)NC(=O)[C@@H]1C[C@@H]2CCCC[C@@H]2CN1C[C@@H](O)[C@H](Cc1ccccc1)NC(=O)[C@H](CC(N)=O)NC(=O)c1ccc2ccccc2n1`, the IC50 entry was “Not Active” and the Ki entry is recorded as “Not Active”.

The target of another experiment is T2, Receptor-type tyrosine-protein phosphatase C (Homo sapiens, UniProt P08575).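 Also: inhibition of CD45 enzyme activity measured using DiFMUP as substrate; in other assays of this panel Not Active means under 50% inhibition at 10 µM.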
T2 sequence (P08575 whole entry): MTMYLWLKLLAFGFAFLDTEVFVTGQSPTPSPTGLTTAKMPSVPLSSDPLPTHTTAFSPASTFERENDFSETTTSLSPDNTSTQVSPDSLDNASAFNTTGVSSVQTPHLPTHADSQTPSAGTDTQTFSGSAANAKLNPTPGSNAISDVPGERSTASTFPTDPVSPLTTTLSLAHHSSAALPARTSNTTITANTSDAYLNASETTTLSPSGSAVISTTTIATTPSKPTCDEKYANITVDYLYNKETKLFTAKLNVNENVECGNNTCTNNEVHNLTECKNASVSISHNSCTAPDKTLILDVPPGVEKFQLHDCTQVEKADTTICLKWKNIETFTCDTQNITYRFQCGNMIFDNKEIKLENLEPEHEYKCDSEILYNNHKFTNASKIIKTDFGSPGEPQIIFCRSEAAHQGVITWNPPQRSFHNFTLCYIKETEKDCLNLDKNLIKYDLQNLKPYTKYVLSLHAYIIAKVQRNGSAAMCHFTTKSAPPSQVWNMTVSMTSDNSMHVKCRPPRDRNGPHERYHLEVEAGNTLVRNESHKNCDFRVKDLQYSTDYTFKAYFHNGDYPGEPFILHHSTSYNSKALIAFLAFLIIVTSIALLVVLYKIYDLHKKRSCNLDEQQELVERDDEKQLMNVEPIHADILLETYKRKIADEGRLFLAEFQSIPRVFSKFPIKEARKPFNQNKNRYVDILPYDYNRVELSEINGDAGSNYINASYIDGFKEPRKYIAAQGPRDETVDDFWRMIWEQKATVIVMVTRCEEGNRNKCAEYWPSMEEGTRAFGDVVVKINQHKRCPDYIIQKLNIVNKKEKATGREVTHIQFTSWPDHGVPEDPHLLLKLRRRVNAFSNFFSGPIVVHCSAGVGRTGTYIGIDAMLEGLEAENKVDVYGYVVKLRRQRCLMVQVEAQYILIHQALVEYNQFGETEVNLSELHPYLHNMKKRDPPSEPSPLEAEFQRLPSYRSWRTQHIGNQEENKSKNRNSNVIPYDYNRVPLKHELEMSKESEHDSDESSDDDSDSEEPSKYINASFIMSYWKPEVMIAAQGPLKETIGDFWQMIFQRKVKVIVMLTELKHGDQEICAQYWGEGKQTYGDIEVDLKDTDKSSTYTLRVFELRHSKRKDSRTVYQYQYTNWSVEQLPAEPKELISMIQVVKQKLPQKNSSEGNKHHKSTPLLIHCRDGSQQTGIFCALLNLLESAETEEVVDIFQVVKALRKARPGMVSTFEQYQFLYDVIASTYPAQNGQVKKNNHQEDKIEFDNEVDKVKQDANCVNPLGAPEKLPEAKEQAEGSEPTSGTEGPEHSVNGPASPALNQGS
Further details: species or system Escherichia coli.
Conditions: not given
Regarding `Cc1oncc1C(=O)Nc1ccc(C(F)(F)F)cc1` [LEFLUNOMIDE], the half-maximal inhibitory concentration (IC50) result is “Not Active”.
The same measure, in the same setting: then `CC[C@@H](CO)NC(=O)[C@@H]1C=C2c3cccc4[nH]cc(c34)C[C@H]2N(C)C1` [METHYLERGONOVINE], with “Not Active”; and `CCOC(=O)N1CCC(=C2c3ccc(Cl)cc3CCc3cccnc32)CC1` [LORATADINE], with “Not Active”.
As for `CC(C)(C)NC(=O)[C@@H]1C[C@@H]2CCCC[C@@H]2CN1C[C@@H](O)[C@H](Cc1ccccc1)NC(=O)[C@H](CC(N)=O)NC(=O)c1ccc2ccccc2n1`, the IC50 entry was “Not Active”.

The record behind these values is ChEMBL document CHEMBL1909046, “DrugMatrix in vitro pharmacology data”.
